Measurements published in patent US4710499A, “New derivatives of pyridazine active on the central nervous system” (priority 1981, dated 1987).
Where a name gives a salt, the structure may show the parent alone. Read-outs that look alike come from different tables or passages of the source.

Key:
[1] = tested on: convulsivant effects of strychnine; assay: Anti-Strychnine Activity (oral, mice); format: in vivo; details: for ED50: Mus musculus, po, read-out: Inhibition of the convulsivant effects of Strychinine ED50
Method: (§1) The anticonvulsivant activity of the derivatives was assessed with respect to two chemical agents: strychnine and bicuculline, and with respect to electric shock. In these various tests, the products were compared with the minaprine described in French Patent 2 141 697 mentioned hereinabove.
The products are administered by the oral route 30 minutes before the strychnine 0.9 mg/kg i.p.. The occurrence of tetanic crises as well as mortality are noted during the 60 minutes following administration of strychnine.
(§2) In the three cases, the products are administered in a range of doses to batches of 10 mice per dose.

[2] = tested on: convulsivant effects of bicuculline; assay: Anti-Bicuculline Activity (oral, mice); format: in vivo; details: for ED50: Mus musculus, read-out: Inhibition of the convulsivant effects of Bicuculline ED50
Method: as §1
Anti-Bicuculline Activity
The products are administered by the oral route 30 minutes before the bicuculline 0.9 mg/kg i.v.. The occurrence of clonic, tonic crises as well as mortality are noted during the 60 minutes following administration of bicuculline.
as §2

[3] = tested on: convulsivant effects of electric shock; assay: Anti-Electric Shock Activity (oral, mice); format: in vivo; details: for ED50: Mus musculus, po, read-out: Inhibition of the convulsivant effects of electric shock ED50; for anti-convulsivant activity with respect to electric shock (in words): oral
Method: The anticonvulsivant activity of the derivatives was assessed with respect to two chemical agents: strychnine and bicuculline, and with respect to electric shock.
Anti-Electric Shock Activity
The electric shock was given to the animal via corneal electrodes. […] The animals not presenting extension of the rear limbs were considered as protected.
as §2

[4] = Acute toxicity, mortality within 24 hours (oral, mice); format: in vivo; details: mouse, in vivo
mice = assay: as above; format: in vivo; details: for toxic effect at the dose of 500 mg/kg p.os (in words): mouse, in vivo
[5] = per os; cited from earlier work
[6] = 30 minutes before bicuculline 0.9 mg/kg i.v., 10 mice per dose
[7] = mice, oral, 250 mg/kg, 24 hours, read-out: p. cent of mortality at 250 mg/kg
[8] = mice, oral, 500 mg/kg, 24 hours, read-out: p. cent of mortality at 500 mg/kg
[9] = mice, oral, 1000 mg/kg, 24 hours, read-out: p. cent of mortality at 1000 mg/kg
[10] = mice, per os, 30 minutes before electric shock (12.5 volts for 0.5 seconds), corneal electrodes, 10 mice per dose

In the case of `CCCC(CCC)C(=O)O` [Sodium Valproate, sodium salt of valproic acid, reference compound], the ED50 [1] is reported as 480 mg/kg, the “anti-convulsivant activity with respect to strychnine (in words)” value ([1]; mice, oral) is reported as “effective dose 50 most often greater than that of the products of the invention” and the “anti-convulsivant activity with respect to bicuculline (in words)” value [2] is reported as “effective dose 50 most often greater than that of the products of the invention”. For the same molecule, the ED50 [2, 6] was 234 mg/kg, the ED50 [3] was 290 mg/kg and the “anti-convulsivant activity with respect to electric shock (in words)” value ([3]; mice) was “effective dose 50 most often greater than that of the products of the invention”.
Work on `CCCCNc1nnc(-c2ccccc2)cc1C` [CM 30434, 3-BUTYLAMINO 4-METHYL 6-PHENYL PYRIDAZINE] yielded a mortality at 24 h [4, 7] of 0%, a mortality at 24 h [4, 8] of 0% and a mortality at 24 h [4, 9] of 0%.
With `Cc1cc(-c2ccccc2)nnc1NCCN1CCOCC1` [Minaprine, reference compound] the “anti-convulsivant activity with respect to strychnine (in words)” value ([1]; mice, oral) was “totally inactive”, the “Inhibition of the convulsivant effects of Strychinine ED50” value ([1]; mice, oral, 30 minutes before strychnine 0.9 mg/kg i.p., 10 mice per dose) was “Inactive” and the “anti-convulsivant activity with respect to bicuculline (in words)” value [2] was “totally inactive”. The “Inhibition of the convulsivant effects of Bicuculline ED50” value [2, 6] was “Inactive”, the “anti-convulsivant activity with respect to electric shock (in words)” value ([3]; mice) was “totally inactive” and the “Inhibition of the convulsivant effects of electric shock ED50” value [3, 10] was “Inactive”. It also gave a mortality ([4]; po, 100 mg/kg) of 20%, a mortality at 24 h ([4]; po, 250 mg/kg) of 100% and a mortality at 24 h ([4]; po, 500 mg/kg) of 100%. For the same molecule, the mortality at 24 h ([4]; po, 1000 mg/kg) was 100%, the “toxicity, overall (in words)” value (mice; mice, p.os) was “much greater toxic effect” and the “dose at which the product shows itself to be convulsivant” value [5] was “greater than 100 mg/kg”.
`Cc1cc(-c2ccccc2)nnc1NCCO` [CM 30094, 3-(2-HYDROXY ETHYLAMINO)4-METHYL 6-PHENYL PYRIDAZINE] gave an ED50 [1] of 119 mg/kg, an ED50 [2, 6] of 286 mg/kg and an ED50 [3, 10] of 107 mg/kg. For the same molecule, the mortality at 24 h [4, 7] was 0%, the mortality at 24 h [4, 8] was 0% and the mortality at 24 h [4, 9] was 0%.
In the case of `OCCNc1nnc(-c2ccccc2)cc1-c1ccccc1` [CM 30339], the ED50 [1] is reported as 145 mg/kg, the “anti-convulsivant activity with respect to strychnine (in words)” value ([1]; mice, oral) is reported as “particularly powerful” and the ED50 [2, 6] is reported as 86 mg/kg. It also gave an ED50 [3, 10] of ~200 mg/kg, a mortality at 24 h ([4]; po, 250 mg/kg) of 0% and a mortality at 24 h ([4]; po, 500 mg/kg) of 60%. The mortality at 24 h ([4]; po, 1000 mg/kg) was 60% and the “toxic effect at the dose of 500 mg/kg p.os (in words)” value (mice) was “have a toxic effect”.
In the case of `COCCNc1nnc(-c2ccccc2)cc1C` [CM 30310, 3-(2-METHOXY ETHYLAMINO)4-METHYL 6-PHENYL PYRIDAZINE], the ED50 [1] is reported as 158 mg/kg, the “anti-convulsivant activity with respect to strychnine (in words)” value ([1]; mice, oral) is reported as “particularly powerful” and the ED50 [2, 6] is reported as 136 mg/kg. For the same molecule, the ED50 [3, 10] was 78 mg/kg, the mortality at 24 h [4, 7] was 0% and the mortality at 24 h [4, 8] was 0%. The mortality at 24 h [4, 9] was 100%.
For `Cc1cc(-c2ccccc2)nnc1NCC(C)O` (stereo not shown) [CM 30096], the ED50 [1] was 92 mg/kg, the “anti-convulsivant activity with respect to strychnine (in words)” value ([1]; mice, oral) was “particularly powerful” and the “anti-convulsivant activity with respect to bicuculline (in words)” value [2] was “still considerable”. The ED50 [2, 6] was 175 mg/kg, the ED50 [3, 10] was 209 mg/kg and the “anti-convulsivant activity with respect to electric shock (in words)” value ([3]; mice) was “still considerable”. The mortality at 24 h ([4]; po, 250 mg/kg) was 0%, the mortality at 24 h ([4]; po, 500 mg/kg) was 20% and the mortality at 24 h ([4]; po, 1000 mg/kg) was 100%. The “toxic effect at the dose of 500 mg/kg p.os (in words)” value (mice) was “have a toxic effect”.
Molecule `COCCNc1nnc(-c2ccccc2)cc1-c1ccccc1` [CM 30340, 3-(2-methoxyethylamino)4,6-diphenyl pyridazine] has a mortality at 24 h [4, 7] of 0%, a mortality at 24 h [4, 8] of 0% and a mortality at 24 h [4, 9] of 20%.
Work on `Cc1cc(-c2ccccc2)nnc1NCCCCO` [CM 30097] yielded a mortality at 24 h [4, 7] of 0%, a mortality at 24 h [4, 8] of 0% and a mortality at 24 h [4, 9] of 100%.
